The record followed here is ChEMBL document CHEMBL1129832, “Rational design, synthesis, and serine protease inhibitory activity of a novel P1-argininal derivative featuring a conformationally constrained P2P3 bicyclic lactam moiety” (Bioorg Med Chem Lett, 1997).

Some targets named below: Coagulation factor X (Homo sapiens, UniProt P00742); Serine protease 1 (Homo sapiens, UniProt P07477); Prothrombin (Homo sapiens, UniProt P00734).
The target of assay [1] is Tissue-type plasminogen activator (Homo sapiens, UniProt P00750). Nature of the assay: In vitro inhibitory concentration required to inhibit tissue plasminogen activator cleavage of the chromogenic substrate by 50%; Inactive.
Tissue-type plasminogen activator, sequence (P00750 whole entry): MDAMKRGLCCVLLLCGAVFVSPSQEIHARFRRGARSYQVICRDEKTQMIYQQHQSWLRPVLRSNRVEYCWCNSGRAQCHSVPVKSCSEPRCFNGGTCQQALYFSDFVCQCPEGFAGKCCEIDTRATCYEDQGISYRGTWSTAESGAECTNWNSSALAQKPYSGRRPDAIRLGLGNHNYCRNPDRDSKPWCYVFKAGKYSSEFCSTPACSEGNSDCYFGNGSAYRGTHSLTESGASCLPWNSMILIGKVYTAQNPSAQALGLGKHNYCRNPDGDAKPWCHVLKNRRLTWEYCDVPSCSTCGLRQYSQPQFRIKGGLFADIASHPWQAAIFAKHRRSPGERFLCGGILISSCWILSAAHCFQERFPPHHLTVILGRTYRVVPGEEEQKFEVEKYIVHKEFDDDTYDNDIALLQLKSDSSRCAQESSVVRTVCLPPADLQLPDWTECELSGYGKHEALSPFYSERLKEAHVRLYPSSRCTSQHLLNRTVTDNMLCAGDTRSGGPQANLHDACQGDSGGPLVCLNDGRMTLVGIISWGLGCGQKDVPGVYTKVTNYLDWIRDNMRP
The target in assay [2] is T1, Plasminogen (Homo sapiens, UniProt P00747).
T1 sequence (P00747 97-580 limits assumed): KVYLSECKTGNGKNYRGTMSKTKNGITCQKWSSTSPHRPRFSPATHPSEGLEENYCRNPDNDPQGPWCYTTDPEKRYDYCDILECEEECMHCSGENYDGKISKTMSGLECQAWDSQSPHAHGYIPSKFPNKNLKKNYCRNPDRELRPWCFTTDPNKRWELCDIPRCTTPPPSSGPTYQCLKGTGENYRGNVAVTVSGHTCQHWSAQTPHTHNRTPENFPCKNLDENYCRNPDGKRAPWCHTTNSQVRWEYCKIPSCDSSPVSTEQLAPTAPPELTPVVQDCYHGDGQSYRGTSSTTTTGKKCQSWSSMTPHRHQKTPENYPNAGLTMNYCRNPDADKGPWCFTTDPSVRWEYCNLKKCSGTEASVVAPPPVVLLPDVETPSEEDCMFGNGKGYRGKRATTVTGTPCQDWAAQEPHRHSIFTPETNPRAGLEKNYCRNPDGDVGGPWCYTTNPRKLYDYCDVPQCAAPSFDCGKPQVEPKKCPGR
T1 sequence (P00747 581-810 limits assumed): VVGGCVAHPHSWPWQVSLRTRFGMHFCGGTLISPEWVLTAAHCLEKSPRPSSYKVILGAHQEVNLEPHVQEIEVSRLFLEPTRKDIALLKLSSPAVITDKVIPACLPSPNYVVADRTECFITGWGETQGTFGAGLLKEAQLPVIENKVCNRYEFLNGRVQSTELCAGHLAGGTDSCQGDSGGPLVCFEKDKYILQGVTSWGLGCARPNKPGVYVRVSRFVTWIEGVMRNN
For assay [3], the target named is T1, Plasminogen. The source holds these as a separate data set.

pIC50: −log10 of the molar value.

Serine protease 1, sequence (P07477 whole entry): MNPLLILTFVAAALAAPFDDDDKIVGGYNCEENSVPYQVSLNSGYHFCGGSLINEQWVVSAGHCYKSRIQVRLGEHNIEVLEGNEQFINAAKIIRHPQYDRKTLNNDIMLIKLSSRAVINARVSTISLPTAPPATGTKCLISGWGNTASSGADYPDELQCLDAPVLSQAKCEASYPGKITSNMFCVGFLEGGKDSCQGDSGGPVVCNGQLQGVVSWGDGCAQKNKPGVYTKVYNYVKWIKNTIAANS
Coagulation factor X, sequence (P00742 41-179 limits assumed): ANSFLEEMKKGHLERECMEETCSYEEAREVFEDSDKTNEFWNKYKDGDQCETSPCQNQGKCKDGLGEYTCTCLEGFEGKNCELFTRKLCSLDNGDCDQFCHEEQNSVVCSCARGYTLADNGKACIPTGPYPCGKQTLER
Coagulation factor X, sequence (P00742 235-488 limits assumed): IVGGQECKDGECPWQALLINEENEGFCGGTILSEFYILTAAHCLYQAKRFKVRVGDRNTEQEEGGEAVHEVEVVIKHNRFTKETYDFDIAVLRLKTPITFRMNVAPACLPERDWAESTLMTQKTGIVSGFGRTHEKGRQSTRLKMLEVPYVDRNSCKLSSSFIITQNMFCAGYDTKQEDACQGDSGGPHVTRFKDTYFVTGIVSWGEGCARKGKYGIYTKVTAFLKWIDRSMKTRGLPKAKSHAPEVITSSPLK
Description for Coagulation factor X: In vitro inhibitory concentration required to inhibit Coagulation factor X by 50%

As a reminder, the pIC50 is the negative decadic logarithm of the IC50, by convention in mol/L. `N=C(N)N1CCC[C@H](NC(=O)C2CS[C@H]3CC[C@H](NS(=O)(=O)Cc4ccccc4)C(=O)N23)C1O` (stereo partly specified): the pIC50 against Coagulation factor X is below 5.60; against Serine protease 1 it was 7.94; on Prothrombin it was 7.79; against Plasminogen [2], 6.03. The IC50 entry in assay [1] is “Not Active”.

For the compound `CCCC(CCC)C(=O)N[C@@H](CC(=O)OC)C(=O)N1CCCC1C(=O)N[C@H]1CCCN(C(=N)N)C1O` (stereo partly specified), the IC50 result in assay [1] is on record as “Not Active”. For the same compound, the results for the pIC50 against Serine protease 1, against Prothrombin and against Plasminogen [2] were 8.87, 8.96 and 6.50, respectively.

Compound `N=C(N)N1CCC[C@H](NC(=O)CN2CCC[C@H](NS(=O)(=O)Cc3ccccc3)C2=O)C1O` (stereo partly specified) had a pIC50 at Coagulation factor X below 5.60. The IC50 entry (against Plasminogen [3]; in assay [1]) was “Not Active” in each case.

For the compound `COC(=O)C[C@H](NS(=O)(=O)Cc1ccccc1)C(=O)N1CCCC1C(=O)N[C@H]1CCCN(C(=N)N)C1O` (stereo partly specified), the pIC50 on Coagulation factor X is 7.53; at Serine protease 1 it was 8.59; against Prothrombin it was 8.30; at Plasminogen [2] it was 7.83.
